Assay [1] addresses T1, human MC1 receptor (Homo sapiens, UniProt Q01726).
T1 construct: endogenous in cells; host or cells: M4Be human melanoma (melanocyte) cell line
The assay is described as follows: Inhibition of AMPc production induced by α-MSH on M4Be cells. Particulars: M4Be human cell line, 5×10^−8 M α-MSH. The format is cell-based. The method, then:
Five Palm-dipeptides according to this invention were introduced at different concentrations and each measurement was made in triplicate. Two or three series of experiments were made.
The M4Be human cell line (Jacubovich et al. Cancer Immunol. Immunother. 1979, 7, 59-64), a melanocytes cell line capable of producing melanines, was used in this study to determine the values of CI50.
The cells were maintained in the Dulbecco modified Eagle medium with 10% of foetal calf serum (FCS), 1 mM of glutamine, 100 U/ml of penicillin and 10^−4 g/ml of streptomycine.
All cell lines were maintained at 37° C. in an atmosphere with 5% of CO2 and cell culture media were renewed every two days. The cells were applied in contact with a plate with 96 wells (Nunc, Roskilde) 24 hours before contact of dipeptides according to the invention.
Cells applied in contact the day before with 8×10^4 cells per well were put in the presence of one of the five dipeptide conjugates according to the invention at various concentrations for 10 minutes at 37° C. with 5×10^−8 M of α-MSH. After this time, the lysis of the cells was made and the AMPc content was measured using a connection test box by competition (RPN225, Amersham Pharmacia Biotech). Each independent experiment was carried out at least twice in triplicate.
The peptidic activity was determined with reference to the AMPc content synthesized by untreated cells and the production of AMPc induced by α-MSH alone. The curves were adjusted and the values of CI50 were determined with non-linear regression in the GraphPad Prism (GraphPad software, San Diego, Calif., United States).

Assay [2] concerns the target receptor MC1. As to conditions: Jayawickreme et al., J. Biol. Chem. 1994; cited from earlier work.
The subject of assay [3] is receptor MC1. Particulars: Proc. Natl. Acad. Sci. (1995), 92, result in words; cited from earlier work.
The mark [4] stands for this setting: 10 minutes at 37° C., experiment 1, read-out: CI50 (μM) exp1.
Where [5] appears, read: 10 minutes at 37° C., experiment 2, read-out: CI50 (μM) exp2.
[6] abbreviates: 10 minutes at 37° C., experiment 3, read-out: CI50 (μM) exp3.
The mark [7] stands for this setting: average of the experiments, read-out: CI50 (μM) aver.

Among the data in patent US8097590B2, “α-MSH-antagonist dipeptide conjugates” (Centre National de la Recherche Scientifique (CNRS), priority 2004, dated 2012) are IC50, Ki and antagonist activity values, retold here.

Read-outs that look alike come from different tables or passages of the source. Non-standard residues stand in square brackets, D forms with d. Residues, ends and D or L forms follow the SMILES beside them. No end group written: not given here. *: point of attachment. Palmitoyl = CCCCCCCCCCCCCCCC(=O)*

T1 sequence (Q01726 whole entry): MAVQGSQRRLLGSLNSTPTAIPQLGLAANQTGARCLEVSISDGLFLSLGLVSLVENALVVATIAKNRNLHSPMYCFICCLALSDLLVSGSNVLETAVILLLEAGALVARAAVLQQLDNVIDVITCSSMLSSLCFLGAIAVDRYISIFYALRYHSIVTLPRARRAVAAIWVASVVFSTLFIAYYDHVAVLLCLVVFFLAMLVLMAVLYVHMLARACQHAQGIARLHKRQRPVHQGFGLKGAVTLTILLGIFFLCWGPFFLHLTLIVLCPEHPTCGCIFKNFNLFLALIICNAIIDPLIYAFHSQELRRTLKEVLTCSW

Regarding `CCCCCCCCCCCCCCCC(=O)N[C@@H](CCCNC(=N)N)C(=O)N[C@@H](Cc1c[nH]cn1)C(N)=O` [Compound 39, Palm-Arg-His-NH2] (Palmitoyl-Arg-His-NH2), the IC50 in assay [1] (setting [4]) came to 29 µM; in assay [1] (setting [5]), 4.6 µM; in assay [1] (setting [6]) it was 4.4 µM; in assay [1] (setting [7]) it was 13 µM.

Consider `CCCCCCCCCCCCCCCC(=O)N[C@@H](CCCNC(=N)N)C(=O)N[C@@H](CCCNC(=N)N)C(N)=O` [Compound 41, Palm-Arg-Arg-NH2] (Palmitoyl-Arg-Arg-NH2), for which the IC50 is 36 µM in assay [1] (setting [4]), 17 µM in assay [1] (setting [5]) and 26 µM in assay [1] (setting [7]).

Consider `CCCCCCCCCCCCCCCC(=O)N[C@@H](CCCNC(=N)N)C(=O)N1CCC[C@H]1C(N)=O` [Compound 49, Palm-Arg-Pro-NH2] (Palmitoyl-Arg-Pro-NH2), for which the IC50 in assay [1] (setting [4]) is 20 µM; in assay [1] (setting [5]) it was 26 µM; in assay [1] (setting [7]), 23 µM.

Consider `CCCCCCCCCCCCCCCC(=O)N[C@@H](CCCNC(=N)N)C(=O)N[C@@H](CCCCN)C(N)=O` [Compound 50, Palm-Arg-Lys-NH2] (Palmitoyl-Arg-Lys-NH2), for which the figures for the IC50 in assay [1] (setting [4]), in assay [1] (setting [5]) and in assay [1] (setting [7]) were 48 µM, 9.6 µM and 29 µM, respectively.

With `CCCCCCCCCCCCCCCC(=O)N[C@@H](CO)C(=O)N1CCC[C@H]1C(N)=O` [Compound 125, Palm-Ser-Pro-NH2] (Palmitoyl-Ser-Pro-NH2), the IC50 in assay [1] (setting [4]) is 45 µM; in assay [1] (setting [5]), 5.5 µM; in assay [1] (setting [6]), 1 µM; in assay [1] (setting [7]), 17 µM.

The Ki is a measure of affinity in units of concentration, obtained from inhibition or displacement. On to H-MP[dF]R[dW]FKPV-NH2 [153 N-6], for which the Ki in assay [2] is 0.011 µM.

In the case of [dW]-Arg-Leu-NH2, the antagonist activity entry in assay [3] was “has an antagonist activity”.
